Data taken from patent publication US20240400564A1 (Syndax Pharmaceuticals, Inc, priority 2021, published 2024).

Molecular target: hERG (Homo sapiens, UniProt Q12809)
Assay: Patch clamp assay (hERG tail currents, whole-cell)

Chain of hERG (Q12809 whole entry): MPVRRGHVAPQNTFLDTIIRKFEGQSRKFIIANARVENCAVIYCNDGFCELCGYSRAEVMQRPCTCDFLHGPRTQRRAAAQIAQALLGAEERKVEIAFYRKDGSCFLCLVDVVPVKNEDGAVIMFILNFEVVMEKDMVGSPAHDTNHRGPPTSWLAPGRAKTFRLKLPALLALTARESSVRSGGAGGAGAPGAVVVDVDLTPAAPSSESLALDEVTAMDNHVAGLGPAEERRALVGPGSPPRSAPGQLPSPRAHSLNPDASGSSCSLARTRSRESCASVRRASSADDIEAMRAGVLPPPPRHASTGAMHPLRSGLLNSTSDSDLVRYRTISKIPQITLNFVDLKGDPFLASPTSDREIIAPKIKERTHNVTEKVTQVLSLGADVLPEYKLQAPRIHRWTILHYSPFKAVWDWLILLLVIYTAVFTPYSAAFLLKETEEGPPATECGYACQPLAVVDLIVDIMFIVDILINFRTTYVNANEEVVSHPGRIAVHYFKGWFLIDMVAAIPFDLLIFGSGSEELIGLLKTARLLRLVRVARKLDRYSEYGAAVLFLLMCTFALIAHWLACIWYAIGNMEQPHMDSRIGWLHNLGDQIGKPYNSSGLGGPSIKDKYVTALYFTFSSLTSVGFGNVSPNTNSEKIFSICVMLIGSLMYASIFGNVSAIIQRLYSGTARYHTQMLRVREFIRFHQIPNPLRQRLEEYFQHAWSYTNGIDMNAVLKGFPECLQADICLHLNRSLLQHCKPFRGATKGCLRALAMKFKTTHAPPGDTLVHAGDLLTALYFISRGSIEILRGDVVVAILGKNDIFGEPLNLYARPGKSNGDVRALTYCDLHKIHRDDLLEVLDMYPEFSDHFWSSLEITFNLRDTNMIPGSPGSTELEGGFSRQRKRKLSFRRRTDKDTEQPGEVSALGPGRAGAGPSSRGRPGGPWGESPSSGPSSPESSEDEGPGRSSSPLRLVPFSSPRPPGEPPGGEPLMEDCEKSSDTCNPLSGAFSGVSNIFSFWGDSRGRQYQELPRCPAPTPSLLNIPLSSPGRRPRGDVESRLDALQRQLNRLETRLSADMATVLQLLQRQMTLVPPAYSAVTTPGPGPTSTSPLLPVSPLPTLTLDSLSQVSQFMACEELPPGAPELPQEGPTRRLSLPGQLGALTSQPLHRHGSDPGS

SMILES | hERG % Remaining (30 μM compound) | hERG % Remaining (10 μM compound) | further results
CC(C)N(CC#N)C(=O)c1cc(F)ccc1Oc1cncnc1N1CC2(CCN(C[C@@H]3CC[C@@H](NS(=O)(=O)N(C)C)CO3)CC2)C1 [Example 181, N-(Cyanomethyl)-2-((4-(7-(((2S,5R)-5-((N,N-dimethylsulfamoyl)amino)tetrahydro-2H-pyran-2-yl)methyl)-2,7-diazaspiro[3.5]nonan-2-yl)pyrimidin-5-yl)oxy)-5-fluoro-N-isopropylbenzamide] | +++ (≥66%) |  | 
CC(C)N(C(=O)c1cc(F)ccc1Oc1cncnc1N1CC2(CCN(C[C@@H]3CC[C@@H](NS(=O)(=O)N4CCOCC4)CO3)CC2)C1)C(C)C [Example 78, 5-Fluoro-N,N-diisopropyl-2-((4-(7-(((2S,5R)-5-(morpholine-4-sulfonamido)tetrahydro-2H-pyran-2-yl)methyl)-2,7-diazaspiro[3.5]nonan-2-yl)pyrimidin-5-yl)oxy)benzamide] | +++ (≥66%) | +++ (≥66%) | 
C[C@@H]1COC[C@@H](C)N1C(=O)c1cc(F)ccc1Oc1cncnc1N1CC2(CCN(C[C@@H]3CC[C@@H](NS(=O)(=O)N4CCC4)CO3)CC2)C1 [Example 121, N-((3R,6S)-6-((2-(5-(2-((3R,5R)-3,5-Dimethylmorpholine-4-carbonyl)-4-fluorophenoxy)pyrimidin-4-yl)-2,7-diazaspiro[3.5]nonan-7-yl)methyl)tetrahydro-2H-pyran-3-yl)azetidine-1-sulfonamide] | +++ (≥66%) |  | 
CCN(C(=O)c1cc(F)ccc1Oc1cncnc1N1CC2(CCN(C[C@H]3CC[C@H](NS(=O)(=O)CC)CC3)CC2)C1)C(C)C [SNDX-5613] | ++ (233% and ≤66%) | ++ (233% and ≤66%) | hERG % Remaining (1 μM compound): +++ (≥66%); hERG % Remaining (3 μM compound): +++ (≥66%); hERG % Remaining (100 μM compound): + (<33%); hERG IC50 (μM) (hERG stably transfected HEK 293 cells): + (<25 PM)
C[C@@H]1COC[C@@H](C)N1C(=O)c1cc(F)ccc1Oc1cncnc1N1CC2(CCN(C[C@@H]3CC[C@@H](NS(=O)(=O)N4CCC[C@@H]4C)CO3)CC2)C1 [Example 209, (S)-N-((3R,6S)-6-((2-(5-(2-((3R,5R)-3,5-Dimethylmorpholine-4-carbonyl)-4-fluorophenoxy)pyrimidin-4-yl)-2,7-diazaspiro[3.5]nonan-7-yl)methyl)tetrahydro-2H-pyran-3-yl)-2-methylpyrrolidine-1-sulfonamide] | +++ (≥66%) |  | 
CCN(C(=O)c1cc(F)ccc1Oc1cncnc1N1CC2(CCN(C[C@@H]3CC[C@@H](NS(=O)(=O)c4ccccc4OC)CO3)CC2)C1)C(C)C [Example 65, N-Ethyl-5-fluoro-N-isopropyl-2-((4-(7-(((2S,5R)-5-((2-methoxyphenyl)sulfonamido)tetrahydro-2H-pyran-2-yl)methyl)-2,7-diazaspiro[3.5]nonan-2-yl)pyrimidin-5-yl)oxy)benzamide] | + (<33%) | ++ (233% and ≤66%) | 
CC(C)N(CC#N)C(=O)c1cc(F)ccc1Oc1cncnc1N1CC2(CCN(C[C@@H]3CC[C@@H](NS(=O)(=O)N4CCC4)CO3)CC2)C1 [Example 182, 2-((4-(7-(((2S,5R)-5-(Azetidine-1-sulfonamido)tetrahydro-2H-pyran-2-yl)methyl)-2,7-diazaspiro[3.5]nonan-2-yl)pyrimidin-5-yl)oxy)-N-(cyanomethyl)-5-fluoro-N-isopropylbenzamide] | +++ (≥66%) |  | 
CCNS(=O)(=O)N[C@@H]1CC[C@@H](CN2CCC3(CC2)CN(c2ncncc2Oc2ccc(F)cc2C(=O)N(C(C)C)C(C)C)C3)OC1 [Example 144, 2-((4-(7-(((2S,5R)-5-((N-Ethylsulfamoyl)amino)tetrahydro-2H-pyran-2-yl)methyl)-2,7-diazaspiro[3.5]nonan-2-yl)pyrimidin-5-yl)oxy)-5-fluoro-N,N-diisopropylbenzamide] | +++ (≥66%) |  | 
CCN(C(=O)c1cc(F)ccc1Oc1cncnc1N1CC2(CCN(C[C@@H]3CC[C@@H](NS(=O)(=O)NC)CO3)CC2)C1)C(C)C [Example 76, N-Ethyl-5-fluoro-N-isopropyl-2-((4-(7-(((2S,5R)-5-((N-methylsulfamoyl)amino)tetrahydro-2H-pyran-2-yl)methyl)-2,7-diazaspiro[3.5]nonan-2-yl)pyrimidin-5-yl)oxy)benzamide] | +++ (≥66%) | +++ (≥66%) | 
CCNS(=O)(=O)N[C@@H]1CC[C@@H](CN2CCC3(CC2)CN(c2ncncc2Oc2ccc(F)cc2C(=O)N(CC)C(C)C)C3)OC1 [Example 141, N-Ethyl-2-((4-(7-(((2S,5R)-5-((N-ethylsulfamoyl)amino)tetrahydro-2H-pyran-2-yl)methyl)-2,7-diazaspiro[3.5]nonan-2-yl)pyrimidin-5-yl)oxy)-5-fluoro-N-isopropylbenzamide] | +++ (≥66%) |  | 
CC(C)N(CC(F)F)C(=O)c1cc(F)ccc1Oc1cncnc1N1CC2(CCN(C[C@@H]3CC[C@@H](NS(=O)(=O)N(C)C(C)C)CO3)CC2)C1 [Example 101, N-(2,2-Difluoroethyl)-5-fluoro-N-isopropyl-2-((4-(7-(((2S,5R)-5-((N-isopropyl-N-methylsulfamoyl)amino)tetrahydro-2H-pyran-2-yl)methyl)-2,7-diazaspiro[3.5]nonan-2-yl)pyrimidin-5-yl)oxy)benzamide] | + (<33%) |  | 
CC(C)N(C(=O)c1cc(F)ccc1Oc1cncnc1N1CC2(CCN(C[C@@H]3CC[C@@H](NS(=O)(=O)C4CC4)CO3)CC2)C1)C1CC(F)(F)C1 [Example 111, 2-((4-(7-(((2S,5R)-5-(Cyclopropanesulfonamido)tetrahydro-2H-pyran-2-yl)methyl)-2,7-diazaspiro[3.5]nonan-2-yl)pyrimidin-5-yl)oxy)-N-(3,3-difluorocyclobutyl)-5-fluoro-N-isopropylbenzamide] | + (<33%) | ++ (233% and ≤66%) | 
CC(C)N(C(=O)c1cc(F)ccc1Oc1cncnc1N1CC2(CCN(C[C@@H]3CC[C@@H](NS(=O)(=O)N4CC5(CCOC5)C4)CO3)CC2)C1)C(C)C [Example 223, 2-((4-(7-(((2S,5R)-5-(6-Oxa-2-azaspiro[3.4]octane-2-sulfonamido)tetrahydro-2H-pyran-2-yl)methyl)-2,7-diazaspiro[3.5]nonan-2-yl)pyrimidin-5-yl)oxy)-5-fluoro-N,N-diisopropylbenzamide] | +++ (≥66%) |  | 
